The values that follow come from patent US11352339B2 (MISSION THERAPEUTICS LIMITED, priority 2016, dated 2022).

Sequence of USP30 (Q70CQ3 57-517): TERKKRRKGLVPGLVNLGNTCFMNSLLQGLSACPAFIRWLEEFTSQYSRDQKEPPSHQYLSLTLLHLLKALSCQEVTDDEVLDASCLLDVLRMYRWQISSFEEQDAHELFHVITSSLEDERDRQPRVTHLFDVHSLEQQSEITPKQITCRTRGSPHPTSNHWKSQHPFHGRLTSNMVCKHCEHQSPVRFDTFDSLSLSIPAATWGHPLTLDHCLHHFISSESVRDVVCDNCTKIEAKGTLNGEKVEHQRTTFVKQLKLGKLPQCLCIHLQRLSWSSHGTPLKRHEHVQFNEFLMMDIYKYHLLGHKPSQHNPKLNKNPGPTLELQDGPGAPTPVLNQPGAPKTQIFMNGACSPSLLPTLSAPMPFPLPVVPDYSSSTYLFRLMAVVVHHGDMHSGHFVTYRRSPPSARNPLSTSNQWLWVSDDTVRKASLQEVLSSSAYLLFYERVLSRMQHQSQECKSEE

This test has as its target USP30 (Homo sapiens (Human), UniProt Q70CQ3). Kind of test: USP30 Biochemical IC50 Assay. The note with it: fluorescence polarisation, TAMRA labelled peptide linked to ubiquitin; 30 min pre-incubation, read after 2 h; read-out: IC50 range. The method, then:
Reactions were performed in duplicate in black 384 well plates (small volume, Greiner 784076) in a final reaction volume of 21 μl. Either 1 μl of 50% DMSO or diluted compound was added to the plate. […] Enzyme and compound were incubated for 30 min at room temp. Reactions were initiated by the addition of 50 nM of TAMRA labelled peptide linked to ubiquitin via an iso-peptide bond as fluorescence polarisation substrate. Reactions were read immediately after addition of substrate and following a 2 h incubation at room temperature. Readings were performed on a Pherastar Plus (BMG Labtech). λ Excitation 540 nm; λ Emission 590 nm.
For `N#CN1CCC(c2noc(-c3ccc(N4CCOCC4)cc3)n2)C1` (stereo not shown) [Example 61, 3-(5-(4-Morpholinophenyl)-1,2,4-oxadiazol-3-yl)pyrrolidine-1-carbonitrile], the half-maximal inhibitory concentration (IC50) was 1000 to 10000 nM.
The same measure for `CO[C@@H]1CCN(c2ccc(-c3nc(C4CCN(C#N)C4)no3)cc2)C1` (stereo partly drawn) [Example 62, 3-(5-(4-((R)-3-Methoxypyrrolidin-1-yl)phenyl)-1,2,4-oxadiazol-3-yl)pyrrolidine-1-carbonitrile]: 1000 to 10000 nM.
Consider `N#CN1CC[C@@H](c2noc(-c3cc(-c4ccccc4)ccn3)n2)C1` [Example 63, (R)-3-(5-(4-Phenylpyridin-2-yl)-1,2,4-oxadiazol-3-yl)pyrrolidine-1-carbonitrile], for which the IC50 was 100 to 1000 nM.
Consider `N#CN1CC[C@@H](c2noc(C3CCN(c4ncccn4)CC3)n2)C1` [Example 64, (R)-3-(5-(1-(Pyrimidin-2-yl)piperidin-4-yl)-1,2,4-oxadiazol-3-yl)pyrrolidine-1-carbonitrile], for which the IC50 lay in the range of 1000 to 10000 nM.
Consider `N#CN1CC[C@@H](c2noc(-c3ccnc(N4CCc5ccccc5C4)c3)n2)C1` [Example 65, (R)-3-(5-(2-(3,4-Dihydroisoquinolin-2(1H)-yl)pyridin-4-yl)-1,2,4-oxadiazol-3-yl)pyrrolidine-1-carbonitrile], for which the IC50 was in the range of 1000 to 10000 nM.
Take `Cn1cc(-c2ccc(-c3nc(C4CCN(C#N)C4)no3)cc2)cn1` (stereo not shown) [Example 66, 3-(5-(4-(1-Methyl-1H-pyrazol-4-yl)phenyl)-1,2,4-oxadiazol-3-yl)pyrrolidine-1-carbonitrile]: the IC50 is 100 to 1000 nM.
Then `N#CN1CCCC1c1noc(-c2ccc(-c3ccccc3)cc2)n1` (stereo not shown) [Example 67, 2-(5-([1,1′-Biphenyl]-4-yl)-1,2,4-oxadiazol-3-yl)pyrrolidine-1-carbonitrile], with 1000 to 10000 nM.
`N#CN1CCCC1c1noc(-c2cccc(-c3ccccc3)c2)n1` (stereo not shown) [Example 68, 2-(5-([1,1′-Biphenyl]-3-yl)-1,2,4-oxadiazol-3-yl)pyrrolidine-1-carbonitrile]: the IC50 was in the range of 100 to 1000 nM.
On to `N#CN1CCC(c2noc(C3CCN(c4ccccc4)C3)n2)C1` (stereo not shown) [Example 69, 3-(5-(1-Phenylpyrrolidin-3-yl)-1,2,4-oxadiazol-3-yl)pyrrolidine-1-carbonitrile], for which the IC50 is 100 to 1000 nM.
The same measure for `Cn1cc(-c2cc(-c3nc([C@@H]4CCN(C#N)C4)no3)ccc2F)cn1` [Example 70, (R)-3-(5-(4-Fluoro-3-(1-methyl-1H-pyrazol-4-yl)phenyl)-1,2,4-oxadiazol-3-yl)pyrrolidine-1-carbonitrile]: 100 to 1000 nM.
Turning to `COc1cc(-c2nc([C@@H]3CCN(C#N)C3)no2)ccc1-c1cnn(C)c1` [Example 71, (R)-3-(5-(3-Methoxy-4-(1-methyl-1H-pyrazol-4-yl)phenyl)-1,2,4-oxadiazol-3-yl)pyrrolidine-1-carbonitrile], the IC50 lay in the range of 100 to 1000 nM.
Regarding `N#Cc1cccc(-c2ccc3nc(C4CCN(C#N)C4)[nH]c3c2)c1` (stereo not shown) [Example 72, 3-(6-(3-Cyanophenyl)-1H-benzo[d]imidazol-2-yl)pyrrolidine-1-carbonitrile], the concentration for half-maximal inhibition (IC50) fell in the range of 100 to 1000 nM.
With `N#CN1CCC(c2nc3ccc(-c4ccccc4OCc4ccccc4)cc3[nH]2)C1` (stereo not shown) [Example 73, 3-(6-(2-(Benzyloxy)phenyl)-1H-benzo[d]imidazol-2-yl)pyrrolidine-1-carbonitrile], the IC50 fell in the range of 100 to 1000 nM.
Take `N#CN1CCC(c2nc3ccc(-c4ccc(C(N)=O)cc4)cc3[nH]2)C1` (stereo not shown) [Example 74, 4-(2-(1-Cyanopyrrolidin-3-yl)-1H-benzo[d]imidazol-6-yl)benzamide]: the 50% inhibitory concentration (IC50) is 100 to 1000 nM.
With `CNC(=O)c1ccc(-c2ccc3nc(C4CCN(C#N)C4)[nH]c3c2)cc1` (stereo not shown) [Example 75, 4-(2-(1-Cyanopyrrolidin-3-yl)-1H-benzo[d]imidazol-6-yl)-N-methylbenzamide], the IC50 was 100 to 1000 nM.
Turning to `Cc1ccc(F)c(-c2ccc3nc(C4CCN(C#N)C4)[nH]c3c2)c1` (stereo not shown) [Example 76, 3-(6-(2-Fluoro-5-methylphenyl)-1H-benzo[d]imidazol-2-yl)pyrrolidine-1-carbonitrile], the IC50 is below 100 nM.
The same measure for `CC(C)Oc1ccc(-c2ccc3nc(C4CCN(C#N)C4)[nH]c3c2)cn1` (stereo not shown) [Example 77, 3-(6-(6-Isopropoxypyridin-3-yl)-1H-benzo[d]imidazol-2-yl)pyrrolidine-1-carbonitrile]: 100 to 1000 nM; for `CC(C)Cn1cc(-c2ccc3nc(C4CCN(C#N)C4)[nH]c3c2)cn1` (stereo not shown) [Example 78, 3-(6-(1-Isobutyl-1H-pyrazol-4-yl)-1H-benzo[d]imidazol-2-yl)pyrrolidine-1-carbonitrile]: 1000 to 10000 nM.
On to `N#CN1CCC(c2nc3ccc(-c4ccc(C(=O)NCc5ccccc5)cc4)cc3[nH]2)C1` (stereo not shown) [Example 79, N-Benzyl-4-(2-(1-cyanopyrrolidin-3-yl)-1H-benzo[d]imidazol-6-yl)benzamide], for which the IC50 lay in the range of 100 to 1000 nM.
As for `N#CN1CCC(c2nc3cc(-c4ccncc4)cnc3[nH]2)C1` (stereo not shown) [Example 80, 3-(6-(Pyridin-4-yl)-3H-imidazo[4,5-b]pyridin-2-yl)pyrrolidine-1-carbonitrile], the IC50 lay within 100 to 1000 nM.
Then `N#CN1CCC(c2nc3cc(-c4ccccc4)cnc3[nH]2)C1` (stereo not shown) [Example 83, 3-(6-Phenyl-3H-imidazo[4,5-b]pyridin-2-yl)pyrrolidine-1-carbonitrile], with 100 to 1000 nM; and `N#Cc1ccc(-c2cnc3[nH]c(C4CCN(C#N)C4)nc3c2)cc1` (stereo not shown) [Example 84, 3-(6-(4-Cyanophenyl)-3H-imidazo[4,5-b]pyridin-2-yl)pyrrolidine-1-carbonitrile], with 100 to 1000 nM.
`N#Cc1cccc(-c2cnc3[nH]c(C4CCN(C#N)C4)nc3c2)c1` (stereo not shown) [Example 85, 3-(6-(3-Cyanophenyl)-3H-imidazo[4,5-b]pyridin-2-yl)pyrrolidine-1-carbonitrile]: the concentration for half-maximal inhibition (IC50) lay in the range of 100 to 1000 nM.
For the compound `COc1ccc(-c2cnc3[nH]c(C4CCN(C#N)C4)nc3c2)cn1` (stereo not shown) [Example 86, 3-(6-(6-Methoxypyridin-3-yl)-3H-imidazo[4,5-b]pyridin-2-yl)pyrrolidine-1-carbonitrile], the IC50 was 100 to 1000 nM.
In the case of `N#CN1CCC(c2nc3cc(-c4ccc5[nH]ncc5c4)cnc3[nH]2)C1` (stereo not shown) [Example 87, 3-(6-(1H-Indazol-5-yl)-3H-imidazo[4,5-b]pyridin-2-yl)pyrrolidine-1-carbonitrile], the IC50 is 100 to 1000 nM.
Consider `N#CN1CCC(c2nc3cc(-c4cn[nH]c4)cnc3[nH]2)C1` (stereo not shown) [Example 88, 3-(6-(1H-Pyrazol-4-yl)-3H-imidazo[4,5-b]pyridin-2-yl)pyrrolidine-1-carbonitrile], for which the IC50 is 1000 to 10000 nM.
For the compound `CNC(=O)c1cccc(-c2cnc3[nH]c(C4CCN(C#N)C4)nc3c2)c1` (stereo not shown) [Example 89, 3-(2-(1-Cyanopyrrolidin-3-yl)-3H-imidazo[4,5-b]pyridin-6-yl)-N-methylbenzamide], the IC50 fell in the range of 1000 to 10000 nM.
With `N#CN1CCC[C@H]1c1nc2ccc(-c3ccccc3)cc2[nH]1` [Example 94, (S)-2-(6-Phenyl-1H-benzo[d]imidazol-2-yl)pyrrolidine-1-carbonitrile], the half-inhibitory concentration (IC50) lay in the range of 1000 to 10000 nM.
In the case of `N#CN1CCC(c2nc3cc(-c4ccccc4)ccc3[nH]2)C1` (stereo not shown) [Example 95, 3-(5-Phenyl-1H-benzo[d]imidazol-2-yl)pyrrolidine-1-carbonitrile], the IC50 was 100 to 1000 nM.
For `Cn1c([C@@H]2CCCN2C#N)nc2cc(-c3ccccc3)ccc21` [Example 96, (S)-2-(1-Methyl-5-phenyl-1H-benzo[d]imidazol-2-yl)pyrrolidine-1-carbonitrile], the IC50 is 10000 to 100000 nM.
Consider `N#CN1CCC(c2nc3ccc(-c4ccccc4)nc3[nH]2)C1` (stereo not shown) [Example 97, 3-(5-Phenyl-3H-imidazo[4,5-b]pyridin-2-yl)pyrrolidine-1-carbonitrile], for which the IC50 lay within 1000 to 10000 nM.
For the compound `N#CN1CCC(c2nc3nccc(-c4ccccc4)c3[nH]2)C1` (stereo not shown) [Example 98, 3-(7-Phenyl-3H-imidazo[4,5-b]pyridin-2-yl)pyrrolidine-1-carbonitrile], the IC50 was 1000 to 10000 nM.
For `Cc1nc2nc(C3CCN(C#N)C3)[nH]c2cc1-c1ccccc1` (stereo not shown) [Example 99, 3-(5-Methyl-6-phenyl-3H-imidazo[4,5-b]pyridin-2-yl)pyrrolidine-1-carbonitrile], the 50% inhibitory concentration (IC50) was 100 to 1000 nM.
Then `Cc1c(-c2ccccc2)cnc2nc(C3CCN(C#N)C3)[nH]c12` (stereo not shown) [Example 100, 3-(7-Methyl-6-phenyl-3H-imidazo[4,5-b]pyridin-2-yl)pyrrolidine-1-carbonitrile], with 100 to 1000 nM; and `Cn1c(C2CCN(C#N)C2)nc2cc(-c3ccccc3)cnc21` (stereo not shown) [Example 101, 3-(3-Methyl-6-phenyl-3H-imidazo[4,5-b]pyridin-2-yl)pyrrolidine-1-carbonitrile], with 100 to 1000 nM; and `N#CN1CCC(c2nnc(-c3ccccn3)[nH]2)C1` (stereo not shown) [Example 105, 3-(5-(Pyridin-2-yl)-4H-1,2,4-triazol-3-yl)pyrrolidine-1-carbonitrile], with 1000 to 10000 nM.
The same measure for `N#CN1CCC(c2nnc(-c3ccccc3)[nH]2)C1` (stereo not shown) [Example 106, 3-(5-Phenyl-4H-1,2,4-triazol-3-yl)pyrrolidine-1-carbonitrile]: 1000 to 10000 nM; for `N#CN1CCC(c2nnc(-c3ccc4nc[nH]c4c3)[nH]2)C1` (stereo not shown) [Example 107, 3-(5-(1H-Benzo[d]imidazol-6-yl)-4H-1,2,4-triazol-3-yl)pyrrolidine-1-carbonitrile]: 1000 to 10000 nM; for `N#CN1CCC(c2nnc(-c3ccc4nccn4c3)[nH]2)C1` (stereo not shown) [Example 108, 3-(5-(Imidazo[1,2-a]pyridin-6-yl)-4H-1,2,4-triazol-3-yl)pyrrolidine-1-carbonitrile]: 1000 to 10000 nM.
Turning to `N#CN1CCC(c2n[nH]c(-c3cc(-c4ccccc4)ccn3)n2)C1` (stereo not shown) [Example 109, 3-(5-(4-Phenylpyridin-2-yl)-4H-1,2,4-triazol-3-yl)pyrrolidine-1-carbonitrile], the IC50 fell in the range of 100 to 1000 nM.
